Experimental data: patent US5334393A, “Sustained-release tablet based on isosorbide 5-mononitrate and process for preparing it” (Pierre Fabre Medicament, priority 1990, dated 1994)

Experiments:
[1] = Particle size by air-jet sieve (ALPIN JET SIEVE); assay type: physicochemical; conditions: for particle size fraction 100 μm to 250 μm: desired profile 20 to 50%; for particle size fraction 80 μm to 100 μm: desired profile 40 to 60%; for particle size fraction larger than 500 μm: desired profile ≤ 0.5%; for particle size fraction 250 μm to 500 μm: desired profile ≤ 5%
Excerpt: The air-Jet sieve method used according to the invention to define the particle size of the 5-ISMN is a technique widely used by those skilled in the art on account of its great sensitivity and reliability, and is consequently very familiar to them. The operating conditions employed in the context of the invention will be clarified in greater detail below.
Characterization of the particle size of the 5-ISMN used according to the invention by the air-jet sieve, type ALPIN JET SIEVE, method
350 g (sic) partial air vacuum,
time 4 min from 80 to 100 μm, then 3 mm (sic) from 250 to 500 μm.
Under these conditions, three batches of 5-ISMN, A, B and C, were tested.

[2] = Kinetics of release in vitro (rotating paddle dissolution); assay type: physicochemical; conditions: composition according to the invention, 100 rpm/900 ml of water
Experimental: The study of the changes in the percentage of 5-ISMN dissolved was performed as a function of time. This test was carried out using a rotating paddle apparatus (100 rpm/900 ml of water).

[3] = Physical properties of 5-ISMN (static electricity, flowability, sublimation, solubility); assay type: physicochemical; conditions: well-defined particle size fraction of 5-ISMN powder
[4] = cited from earlier work
[5] = plasma; recorded value; cited from earlier work
[6] = Kinetics of release of the active principle in vitro as a function of pH; assay type: physicochemical; conditions: tablet according to the invention
Experimental: This study was carried out at pH values of 1.5, 4.25 and 7.2 and variable values.

[7] = In vivo absorption profile

Row | Structure (SMILES) | particle size fraction 100 μm to 250 μm [1] [%] | particle size fraction 80 μm to 100 μm [1] [%] | particle size fraction larger than 500 μm [1] [%] | particle size fraction 250 μm to 500 μm [1] [%] | % dissolved at 0.25 hour ([2]; 0.25 hour) | % dissolved at 1 hour ([2]; 1 hour) | % dissolved at 4 hours ([2]; 4 hours) | % dissolved at 8 hours ([2]; 8 hours) [%] | electrostatic phenomena [3] | flowability and compressibility [3] | tendency to sublime [3] | sublimation ([4]; 60° C., 75% relative humidity) | flowability ([4]; static electricity phenomenon, dry mixing) | solubility in water and buffer solutions ([4]; water and buffer solutions) | minimal effective concentration (Ceff) [5] [ng/mL] | kinetic profiles of release at constant pH ([6]; pH 1.5, 4.25 and 7.2) | dissolution profile obtained at variable pH ([6]; variable pH) | constant mean flux of in vivo absorption ([7]; calculated from mean curve of percentages of 5-ISMN absorbed) [% h^-1] | absorption profile ([7]; mean curve for the percentages of 5-ISMN absorbed)
1 | O=[N+]([O-])O[C@@H]1CO[C@H]2[C@@H]1OC[C@@H]2O [A, isosorbide 5-mononitrate] | 26 | 47.5 | 0.0 | 0.0 | – | – | – | – | – | – | – | – | – | – | – | – | – | – | –
2 | O=[N+]([O-])O[C@@H]1CO[C@H]2[C@@H]1OC[C@@H]2O [C, isosorbide 5-mononitrate] | 34.85 | 49.2 | 0.0 | 0.0 | – | – | – | – | – | – | – | – | – | – | – | – | – | – | –
3 | O=[N+]([O-])O[C@@H]1CO[C@H]2[C@@H]1OC[C@@H]2O [B, isosorbide 5-mononitrate] | 34.4 | 48.2 | 0.0 | 0.9 | – | – | – | – | – | – | – | – | – | – | – | – | – | – | –
4 | O=[N+]([O-])O[C@@H]1CO[C@H]2[C@@H]1OC[C@@H]2O [5-ISMN, isosorbide 5-mononitrate] | – | – | – | – | 5% to 20% | 20% to 40% | 60% to 80% | ≥ 80 | low level of electrostatic phenomena | qualities of flowability and compressibility | far less marked tendency to sublime | sublimation phenomenon | virtually zero flowability | very high solubility | 100 | do not differ significantly from one another | pH-independent mode of release | ~13.37 | zero order entry up to approximately the fifth hour following administration
